Data reported in publication PMC5794198, “Inhibitors of Trypanosoma cruzi Sir2 related protein 1 as potential drugs against Chagas disease” (PLoS Neglected Tropical Diseases, 2018).
Entries after “also recorded” stand apart in the source; their conditions may differ. Where two headings read alike, the source gives them in different places.

Key:
T. cruzi amastigotes = test: High-content screening assay on intracellular T. cruzi amastigotes; format: cell-based, Trypanosoma cruzi; conditions: for EC50: Y strain in C2C12 host cells, 72 h, read-out: Anti-T. cruzi Activity Amastigotes (EC50 ± SD)
Method: (§1) For the evaluation of the activity against T. cruzi amastigotes, high-content screening (HCS) was designed. In summary, 100 μL of host C2C12 cells (ATCC) were seeded in clear bottom black 96-well plates at a density of 2.5 x 10^4 cells/mL (2.5 × 10^3 cells/well). After 24 hrs, 50 μL of Y strain tissue culture-derived trypomastigotes were used to infect the host cells at a density of 7.5 x 10^5/mL (3.75 x 10^4 parasites/well). The parasites were allowed to infect for a 24 hr period, after which compounds were added in a volume of 50 μL. […] After 72 hrs of compound incubation, the wells were fixed with 4% paraformaldehyde for 15 to 30 mins. The plates were then washed once with deionized water and stained with a solution of DAPI (3 μM) for 1 hour. Plates were imaged in an INCell 2000 (GE Healthcare) high-content analyser by taking 16 pictures per well at 20 X objective amplification. Images were analysed with INCell Developer software (GE Healthcare) using the segmentation of host cell nuclei and parasite kinetoplast DNA. The measurement output used was the average number of parasites per cell calculated by the ratio of host cell nuclei/parasite kinetoplast DNA.
In this assay, the compounds are incubated for 72 hours with cells previously infected with wild-type trypomastigotes for 24 hours. The readout was done by comparing the average number of amastigotes per cell that developed by the end of the incubation period. The quality of the assay was statistically evaluated by the calculation of the z-factor [75], that represents the reliability of the assay in distinguishing positive controls confidently from negative controls. Varying from 0 to 1, z-factor values higher than 0.5 are considered acceptable for drug screening. The z-factor obtained was 0.68, validating the use of the assay (S3B Fig).

[1] = C2C12 host cell cytotoxicity (cell ratio) in HCS assay; format: cell-based, Mouse; conditions: mouse, cell ratio, 72 h; read-out: C2C12 Cytotoxicity (CC50 ± SD)
Method: as §1, with “After 24 hrs, 50 μL of Y strain tissue culture-derived trypomastigotes were used to infect the host cells at a density of 7.5 x 10^5/mL (3.75 x 10^4 parasites/well).” left out

C2C12 cells = test: as above; format: cell-based, Mouse; conditions: for Selectivity Index: CC50 cell line (C2C12)/EC50 T. cruzi; for CC50: cell ratio, 72 h, read-out: C2C12 Cytotoxicity (CC50 ± SD)
Method: as §1, with “After 24 hrs, 50 μL of Y strain tissue culture-derived trypomastigotes were used to infect the host cells at a density of 7.5 x 10^5/mL (3.75 x 10^4 parasites/well).” left out

human SIRT1 = target: T1, human SIRT1 (Homo sapiens, UniProt Q96EB6); test: hSIRT1 deacetylase inhibition (CycLex kit); format: biochemical; conditions: 10 µM, n=2, N.I. = no inhibition; for inhibition at 10 µM: read-out: hSIRT1 Inhibition at 10 µM (% ± SD)
T1 sequence (Q96EB6 1-747): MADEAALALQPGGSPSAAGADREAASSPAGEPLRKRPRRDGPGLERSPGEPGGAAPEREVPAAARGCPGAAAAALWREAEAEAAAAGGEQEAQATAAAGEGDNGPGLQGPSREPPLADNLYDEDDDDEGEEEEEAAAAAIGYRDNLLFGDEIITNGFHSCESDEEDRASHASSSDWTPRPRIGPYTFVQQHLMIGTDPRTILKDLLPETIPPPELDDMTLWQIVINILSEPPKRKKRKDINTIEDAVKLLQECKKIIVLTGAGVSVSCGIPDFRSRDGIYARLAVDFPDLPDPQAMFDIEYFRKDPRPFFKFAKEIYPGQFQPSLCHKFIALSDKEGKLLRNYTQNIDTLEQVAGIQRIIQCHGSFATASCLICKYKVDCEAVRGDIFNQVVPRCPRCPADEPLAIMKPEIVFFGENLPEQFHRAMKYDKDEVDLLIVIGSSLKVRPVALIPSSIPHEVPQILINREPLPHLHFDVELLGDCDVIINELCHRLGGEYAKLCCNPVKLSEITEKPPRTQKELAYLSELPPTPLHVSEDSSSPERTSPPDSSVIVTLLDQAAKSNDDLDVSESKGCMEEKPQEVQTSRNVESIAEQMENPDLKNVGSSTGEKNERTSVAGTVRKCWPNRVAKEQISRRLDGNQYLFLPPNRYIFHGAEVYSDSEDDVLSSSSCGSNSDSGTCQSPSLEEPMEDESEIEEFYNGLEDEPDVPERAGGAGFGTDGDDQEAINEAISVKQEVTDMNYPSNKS

TcSir2rp1 = TcSir2rp1 (Trypanosoma cruzi, UniProt Q4DVL9); test: TcSir2rp1 NAD+-dependent deacetylase fluorimetric assay (CycLex kit); format: biochemical; conditions: for Inhibition of NAD+-dependent deacetylase activity of TcSir2rp1 / inhibition at 10 µM: single dose 10 μM, 200 μM NAD+, 10 μM peptide
TcSir2rp1, sequence (Q4DVL9 entry or part of it): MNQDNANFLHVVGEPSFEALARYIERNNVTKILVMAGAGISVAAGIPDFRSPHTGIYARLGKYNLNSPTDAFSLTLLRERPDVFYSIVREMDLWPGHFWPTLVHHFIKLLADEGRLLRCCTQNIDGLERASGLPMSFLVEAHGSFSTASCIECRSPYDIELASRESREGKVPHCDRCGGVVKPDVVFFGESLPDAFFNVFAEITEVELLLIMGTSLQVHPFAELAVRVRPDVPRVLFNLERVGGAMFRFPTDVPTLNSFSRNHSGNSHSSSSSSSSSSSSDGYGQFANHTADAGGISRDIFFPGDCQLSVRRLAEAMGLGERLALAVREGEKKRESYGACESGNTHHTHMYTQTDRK
Method: The deacetylase activity was measured using the commercial SIRT1/Sir2 Deacetylase Fluorometric Assay Kit (CycLex,Japan) according to the manufacturer’s recommendations. Briefly, fluorescence emission after digestion of deacetylated substrates by a lysine specific endopeptidase was measured in a fluorometric plate reader (Synergy HT, BioTek) with excitation and emission wavelengths set at 340 and 440 nm, respectively, every 30 seconds for 1 hour. The slope of the linear part of the reaction was calculated and used as readout of enzyme activity. […]
(§2) A variety of the bisnaphthalimidopropyl (BNIPs) derivatives, as well as the newly synthetized derivatives were evaluated as potential TcSir2rp1 inhibitors. The enzymatic reactions were performed using a commercially available CycLex SIRT1/Sir2 deacetylase fluorimetric kit (CycLex Co. Ltd., Nagano, Japan) in the absence and presence of the various inhibitors, 200 μM NAD^+ and 10 μM of peptide substrate as previously described.
as §2, with “µM” for “μM”

Solubility = format: physicochemical; conditions: limits the concentration tested

Row | Structure (SMILES) | EC50 (T. cruzi amastigotes; Trypanosoma cruzi, C2C12, 72 h) | CC50 at 72 h [1] | Selectivity Index (C2C12 cells) | hSIRT1 Inhibition at 10 µM (% ± SD) (human SIRT1) | inhibition at 10 µM (human SIRT1) | further results
1 | O=C1c2cccc3cccc(c23)C(=O)N1CCCNCCCCNCCCN1C(=O)c2cccc3cccc(c23)C1=O [Compound 1] | 1710 ± 230 nM | 2910 ± 940 nM | 1.7 | – | – | –
2 | O=C1c2cccc3cccc(c23)C(=O)N1CCCNC1CCC(NCCCN2C(=O)c3cccc4cccc(c34)C2=O)CC1 (stereo not shown) [Compound 1a] | – | – | 1.4 | 1 ± 1% | – | EC50 (T. cruzi amastigotes): 6090 ± 140 nM; CC50 (C2C12 cells): 8.74 ± 1.14 µM
3 | O=C1c2cccc3cccc(c23)C(=O)N1CCCNC1CCC(NCCCN2C(=O)c3cccc4cccc(c34)C2=O)CC1 (stereo not shown) [Compound 1b] | – | – | > 3.2 | 3 ± 4% | – | EC50 (T. cruzi amastigotes): 780 ± 120 nM; CC50 (C2C12 cells): > 2.5 µM
4 | O=C1c2cccc3cccc(c23)C(=O)N1CCCNc1ccc(NCCCN2C(=O)c3cccc4cccc(c34)C2=O)cc1 [Compound 1c] | – | – | – | N.I. | – | –
5 | O=C1c2cccc3cccc(c23)C(=O)N1CCCNCCCCCCCCNCCCN1C(=O)c2cccc3cccc(c23)C1=O [Compound 5] | – | – | – | – | – | Activity against amastigotes (primary screening) (T. cruzi amastigotes; single dose screening): very little if any activity; Inhibition of NAD+-dependent deacetylase activity of TcSir2rp1 (TcSir2rp1): not active; also recorded: very little if any activity
6 | O=C1c2cccc3cccc(c23)C(=O)N1CCCN1CCC(CCCC2CCN(CCCN3C(=O)c4cccc5cccc(c45)C3=O)CC2)CC1 [Compound 6a] | 1450 ± 300 nM | 2880 ± 120 nM | 2.0 | – | 3 ± 4% | –
7 | O=C1c2cccc3cccc(c23)C(=O)N1CCCNC1CCC(CC2CCC(NCCCN3C(=O)c4cccc5cccc(c45)C3=O)CC2)CC1 (stereo not shown) [Compound 6b] | – | – | – | – | 44 ± 8% | inhibition at 10 µM (TcSir2rp1): 8 ± 5%
8 | O=C1c2cccc3cccc(c23)C(=O)N1CCCNc1ccc(Cc2ccc(NCCCN3C(=O)c4cccc5cccc(c45)C3=O)cc2)cc1 [Compound 6c] | – | – | – | – | 8 ± 1% | Solubility in assay (qualitative) (Solubility): poor solubility
9 | O=C1c2cccc3cccc(c23)C(=O)N1CCCNCCCN1CCN(CCCNCCCN2C(=O)c3cccc4cccc(c34)C2=O)CC1 [Compound 7a] | 13600 ± 2900 nM | 19300 ± 5640 nM | 1.4 | N.I. | – | –
10 | O=C1c2cccc3cccc(c23)C(=O)N1CCCNCCCCCCCCCCCCNCCCN1C(=O)c2cccc3cccc(c23)C1=O [Compound 8] | 1430 ± 100 nM | 1910 ± 60 nM | 1.3 | – | – | inhibition at 50 µM (TcSir2rp1): 31 ± 9%; Inhibition of NAD+-dependent deacetylase activity of TcSir2rp1 (TcSir2rp1): statistically significant inhibition
11 | O=C1c2cccc3cccc(c23)C(=O)N1CCCNCCOCCOCCNCCCN1C(=O)c2cccc3cccc(c23)C1=O [Compound 9a] | 3430 ± 570 nM | 7370 ± 650 nM | 2.1 | – | 3 ± 4% | inhibition at 50 µM (TcSir2rp1): 29 ± 4%; Inhibition of NAD+-dependent deacetylase activity of TcSir2rp1 (TcSir2rp1): statistically significant inhibition; inhibition at 10 µM (TcSir2rp1): 28 ± 13%
12 | O=C1c2cccc3cccc(c23)C(=O)N1CCCNCCCNCCCCNCCCNCCCN1C(=O)c2cccc3cccc(c23)C1=O [Compound 10] | – | – | – | – | – | Solubility in assay (qualitative) (Solubility): poor solubility
13 | C[N+]1(CCCN2C(=O)c3cccc4cccc(c34)C2=O)CCN(CCCN2C(=O)c3cccc4cccc(c34)C2=O)CC1 [Compound 12] | 28700 ± 4090 nM | > 50000 nM | > 1.7 | N.I. | – | –
14 | O=C1c2cccc3c(Cl)ccc(c23)C(=O)N1CCCN1CCN(CCCN2C(=O)c3cccc4c(Cl)ccc(c34)C2=O)CC1 [Compound 13] | 590 ± 230 nM | > 2500 nM | – | – | 15 ± 4% | inhibition at 20 µM (TcSir2rp1): 48 ± 6%; Inhibition of T. cruzi enzyme relative to hSIRT1, fold higher (TcSir2rp1; both at 10 μM): at least 3 fold; Inhibition of NAD+-dependent deacetylase activity of TcSir2rp1 (TcSir2rp1): statistically significant inhibition; inhibition at 10 µM (TcSir2rp1): 50 ± 8%; Solubility in assay (qualitative) (Solubility): low solubility
15 | CC(/C=C/C(=O)NO)=C\[C@@H](C)C(=O)c1ccc(N(C)C)cc1 [trichostatin A, reference compound] | – | – | – | – | – | TcSir2rp1 deacetylase activity still displayed (TcSir2rp1; inhibitor at 1 μM): 77 ± 8%
